Results reported in patent US20240254118A1, “PRMT5 INHIBITORS AND USES THEREOF” (Gilead Sciences, Inc., priority 2022, published 2024).

What was measured:
[1] = tested on: SDMA signal (PRMT5 inhibition) in HCT116 MTAP-deleted cells; test: Symmetric di-methyl arginine image-based high content screen assay (SDMA assay), HCT116 MTAP-deleted; format: cell-based; conditions: SDMA assay; for EC50: Homo sapiens, HCT-116, 72 h, 3 days of treatment, cell line not given, taken as HCT116 MTAP-deleted, read-out: EC50 (SDMA assay)
Outline: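 HCT116 MTAP-deleted cells treated with compound until Day 3, then formalin-fixed, permeabilized and immunostained for SDMA, with DAPI nuclear counterstain. Imaged by high-content microscopy; SDMA read-out is mean Alexa 488 intensity per DAPI-defined cell, reflecting PRMT5 inhibition.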

[2] = tested on: HCT116 MTAP-deleted cells; test: Cell viability assay (CellTiter-Glo, 7 days), HCT116 MTAP-deleted; conditions: Homo sapiens, HCT-116, 168 h
[3] = taken as HCT116 WT versus MTAP-deleted

Compound	EC50 [1]	EC50 selectivity (SDMA assay) [1, 3]	CC50 [2]	EC50 selectivity (SDMA assay) ([1]; taken as HCT116 WT vs MTAP-deleted)
CN(c1ncccn1)N(Cc1ccc(C(F)(F)F)cn1)C(=O)c1ccc2nc(N)c3cnn(C)c3c2c1 [Example 23, 4-amino-N′, 1-dimethyl-N′-(pyrimidin-2-yl)-N-((5-(trifluoromethyl)pyridin-2-yl)methyl)-1H-pyrazolo[4,3-c]quinoline-8-carbohydrazide]	< 1 nM	18	< 100 nM	
CC(=O)N(C)N(Cc1ccc(C#CC2CCOC2)cc1F)C(=O)c1ccc2nc(N)c3cnn(C)c3c2c1 (stereo not drawn) [Example 388, N′-acetyl-4-amino-N-[[2-fluoro-4-(2-tetrahydrofuran-3-ylethynyl)phenyl]methyl]-N′,1-dimethyl-pyrazolo[4,3-c]quinoline-8-carbohydrazide]	< 1 nM	40	< 100 nM	
CC(=O)N(C)N(Cc1nc2cc(C(F)(F)F)ccc2s1)C(=O)c1cc2c(cc1Cl)nc(N)c1cnn(C)c12 [Example 87, N′-Acetyl-4-amino-7-chloro-N′,1-dimethyl-N-[[5-(trifluoromethyl)-1,3-benzothiazol-2-yl]methyl]pyrazolo[4,3-c]quinoline-8-carbohydrazide]	1 to 5 nM	104	100 to 1000 nM	
Cn1ncc2c(N)nc3ccc(C(=O)N(Cc4ccc(C(F)(F)F)cn4)N4CCC(C)(C)CC4=O)cc3c21 [Example 31, 4-amino-N-(4,4-dimethyl-2-oxo-1-piperidyl)-1-methyl-N-[[5-(trifluoromethyl)-2-pyridyl]methyl]pyrazolo[4,3-c]quinoline-8-carboxamide]	1 to 5 nM	323	< 100 nM	
Cn1ncc2c(N)nc3ccc(C(=O)N(Cc4ccc(C(F)(F)F)cn4)N4CCC5(CC5)C4=O)cc3c21 [Example 159, 4-amino-1-methyl-N-(4-oxo-5-azaspiro[2.4]heptan-5-yl)-N-((5-(trifluoromethyl)pyridin-2-yl)methyl)-1H-pyrazolo[4,3-c]quinoline-8-carboxamide]	< 1 nM	69	< 100 nM	
CC(NN(Cc1ccc(C(F)(F)F)cn1)C(=O)c1ccc2nc(N)c3cnn(C)c3c2c1)C(F)(F)F (stereo not drawn) [Example 405, 4-amino-1-methyl-N-((5-(trifluoromethyl)pyridin-2-yl)methyl)-N′-(1,1,1-trifluoropropan-2-yl)-1H-pyrazolo[4,3-c]quinoline-8-carbohydrazide]	< 1 nM		< 100 nM	154
CN(C(=O)[C@@H]1CCO1)N(Cc1ccc(C(F)(F)F)cc1F)C(=O)c1ccc2nc(N)c3cnn(C)c3c2c1 [Example 198, 4-amino-N-[[2-fluoro-4-(trifluoromethyl)phenyl]methyl]-N′,1-dimethyl-N′-[(2S)-oxetane-2-carbonyl]pyrazolo[4,3-c]quinoline-8-carbohydrazide]	< 1 nM	57	< 100 nM	
CC(=O)N(C)N(Cc1ccc(-c2cnc(C(F)(F)F)cc2C)cc1F)C(=O)c1ccc2nc(N)c3cnn(C)c3c2c1 [Example 220, N′-acetyl-4-amino-N-(2-fluoro-4-(4-methyl-6-(trifluoromethyl)pyridin-3-yl)benzyl)-N′,1-dimethyl-1H-pyrazolo[4,3-c]quinoline-8-carbohydrazide]	1 to 5 nM	15	< 100 nM	
CN(C(=O)C1CC1)N(Cc1ccc(-c2cnsc2)cc1F)C(=O)c1ccc2nc(N)c3cnn(C)c3c2c1 [Example 240, 4-amino-N′-(cyclopropanecarbonyl)-N-(2-fluoro-4-(isothiazol-4-yl)benzyl)-N′,1-dimethyl-1H-pyrazolo[4,3-c]quinoline-8-carbohydrazide]	< 1 nM	95	< 100 nM	
Cn1cc(-c2ccc(CN(C(=O)c3ccc4nc(N)c5cnn(C)c5c4c3)N3CCCCC3=O)nc2)cn1 [Example 130, 4-amino-1-methyl-N-((5-(1-methyl-1H-pyrazol-4-yl)pyridin-2-yl)methyl)-N-(2-oxopiperidin-1-yl)-1H-pyrazolo[4,3-c]quinoline-8-carboxamide]	1 to 5 nM	34	< 100 nM	
COc1cc(C(F)(F)F)ccc1CN(C(=O)c1ccc2nc(N)c3cnn(C)c3c2c1)N1CCCCC1=O [Example 67, 4-amino-N-[[2-methoxy-4-(trifluoromethyl)phenyl]methyl]-1-methyl-N-(2-oxo-1-piperidyl)pyrazolo[4,3-c]quinoline-8-carboxamide]	< 1 nM	25	< 100 nM	
Nc1nc2ccc(C(=O)N(Cc3ccc(C(F)(F)F)cn3)Nc3ncccn3)cc2c2ccccc12 [Example 76, 6-amino-N′-(pyrimidin-2-yl)-N-((5-(trifluoromethyl)pyridin-2-yl)methyl)phenanthridine-2-carbohydrazide]	1 to 5 nM	204	100 to 1000 nM	
